Read-outs that look alike come from different tables or passages of the source.
Key:
[1] = Clinical pharmacokinetics: distribution and elimination; settings: human, in vivo
Text: The volume of distribution at steady state was approximately 4.8-6.6 L/kg.
Clearance of OM after oral administration was primarily through metabolism in the liver. […] Following oral administration of radiolabeled OM to healthy subjects, approximately 49% of the dose was excreted in urine (primarily as metabolites with 8% of parent compound recovered) and 38% in feces (primarily as unchanged drug).

P-gp = P-gp (Homo sapiens, UniProt P08183); assay: Transporter substrate assessment; type: in vitro ADME; settings: result in words
Sequence of P-gp (P08183 whole entry): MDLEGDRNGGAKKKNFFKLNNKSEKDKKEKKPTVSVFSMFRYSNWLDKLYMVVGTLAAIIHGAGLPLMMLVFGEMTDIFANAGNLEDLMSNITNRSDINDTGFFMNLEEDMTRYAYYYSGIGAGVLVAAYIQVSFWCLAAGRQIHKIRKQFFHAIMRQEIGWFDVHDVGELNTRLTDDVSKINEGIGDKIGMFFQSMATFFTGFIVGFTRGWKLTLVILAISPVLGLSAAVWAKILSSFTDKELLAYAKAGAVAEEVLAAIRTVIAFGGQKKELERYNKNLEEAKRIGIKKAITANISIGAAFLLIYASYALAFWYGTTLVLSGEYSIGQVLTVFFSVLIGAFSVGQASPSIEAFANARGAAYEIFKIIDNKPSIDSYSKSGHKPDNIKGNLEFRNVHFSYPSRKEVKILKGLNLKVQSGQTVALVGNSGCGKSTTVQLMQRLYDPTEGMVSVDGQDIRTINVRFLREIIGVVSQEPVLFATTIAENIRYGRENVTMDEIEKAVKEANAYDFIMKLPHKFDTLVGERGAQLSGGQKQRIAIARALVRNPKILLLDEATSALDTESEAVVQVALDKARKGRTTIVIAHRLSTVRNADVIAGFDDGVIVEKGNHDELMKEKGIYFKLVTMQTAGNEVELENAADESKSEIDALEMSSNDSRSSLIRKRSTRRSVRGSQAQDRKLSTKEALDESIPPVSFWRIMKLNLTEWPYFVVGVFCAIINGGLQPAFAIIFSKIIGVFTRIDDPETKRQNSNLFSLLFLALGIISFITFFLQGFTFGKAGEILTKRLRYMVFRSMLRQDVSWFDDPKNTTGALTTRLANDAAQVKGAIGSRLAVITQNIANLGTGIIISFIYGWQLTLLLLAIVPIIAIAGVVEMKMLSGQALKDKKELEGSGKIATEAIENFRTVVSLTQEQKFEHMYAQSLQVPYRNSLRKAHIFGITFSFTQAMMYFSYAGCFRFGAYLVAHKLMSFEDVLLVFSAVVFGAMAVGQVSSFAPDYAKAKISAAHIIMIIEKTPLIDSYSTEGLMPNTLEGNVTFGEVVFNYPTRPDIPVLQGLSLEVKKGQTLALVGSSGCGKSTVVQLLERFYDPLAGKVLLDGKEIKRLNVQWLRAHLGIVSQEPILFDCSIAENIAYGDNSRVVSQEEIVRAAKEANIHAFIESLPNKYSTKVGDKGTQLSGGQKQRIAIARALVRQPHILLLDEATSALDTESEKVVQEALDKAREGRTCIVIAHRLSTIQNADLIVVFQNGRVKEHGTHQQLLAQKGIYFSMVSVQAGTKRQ

[2] = type: in vivo; settings: human, plasma, oral, at 6 weeks, read-out: Omecamtiv mecarbil PK value (plasma concentration), median
[3] = test system: patients with or without AFF; type: in vivo; settings: for Troponin I increase: at 6 weeks; for Treatment effect on primary outcome by AFF at baseline: multivariable covariate-interaction model
[4] = test system: patients with HFrEF by baseline SBP; type: in vivo
Text: Systolic blood pressure (SBP) is a major predictor of outcomes in patients with heart failure and reduced ejection fraction (HFrEF). […] This trial provided data on the efficacy and tolerability of omecamtiv mecarbil according to baseline SBP values. In contrast to other HFrEF therapies, which may not be tolerated in patients with low baseline blood pressure (e.g., <100 mmHg), the present study was able to enroll patients with SBP at baseline of 85 mmHg or greater.
The 8232 randomized patients were subdivided according to SBP at baseline: <100 mmHg (n=1473), 101-110 mmHg (n=1734), 111-120 mmHg (n=1824), 121-130 mmHg (n=1627), and >130 mmHg (n=1574). Significant differences between these subgroups were found with respect of multiple baseline characteristics. The primary composite endpoint occurred in 715 (48.5%), 682 (39.3%), 679 (37.2%), 556 (34.2%), and 498 (31.6%) patients in each SBP subgroup, respectively. Hazard ratios (HRs) and 95% confidence intervals (CIs) for the treatment effect on the primary outcome were of 0.81, 0.70-0.94; 0.88, 0.76-1.03; 1.03, 0.88-1.19; 0.87, 0.73-1.03; and 1.07, 0.90-1.28 in each SBP subgroup, respectively.

BCRP [5] = molecular target: T1, BCRP (Homo sapiens, UniProt Q9UNQ0); assay: Transporter substrate assessment; type: in vitro ADME; settings: result in words
T1 sequence (Q9UNQ0 1-655): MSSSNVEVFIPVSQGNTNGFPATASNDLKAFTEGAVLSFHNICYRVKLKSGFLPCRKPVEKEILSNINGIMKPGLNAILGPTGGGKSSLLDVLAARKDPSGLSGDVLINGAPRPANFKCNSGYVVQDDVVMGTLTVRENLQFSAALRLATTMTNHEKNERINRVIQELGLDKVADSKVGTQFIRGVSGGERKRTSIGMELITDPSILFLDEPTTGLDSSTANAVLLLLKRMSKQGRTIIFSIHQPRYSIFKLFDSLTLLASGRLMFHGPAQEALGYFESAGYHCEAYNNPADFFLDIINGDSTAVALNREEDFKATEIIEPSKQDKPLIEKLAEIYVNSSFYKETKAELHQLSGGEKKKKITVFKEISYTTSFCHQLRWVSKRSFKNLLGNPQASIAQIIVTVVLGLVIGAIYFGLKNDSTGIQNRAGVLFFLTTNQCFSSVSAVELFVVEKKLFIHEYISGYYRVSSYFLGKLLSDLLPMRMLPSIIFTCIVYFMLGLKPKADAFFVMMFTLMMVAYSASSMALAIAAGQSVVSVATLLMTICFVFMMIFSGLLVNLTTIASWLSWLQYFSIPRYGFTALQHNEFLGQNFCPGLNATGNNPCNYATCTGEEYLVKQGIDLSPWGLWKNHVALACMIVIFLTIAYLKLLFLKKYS

BCRP [6] = molecular target: T1, BCRP; assay: In vitro inhibition by OM; type: in vitro ADME; settings: result in words

Which “Renal clearance as share of the systemic clearance” value [1] does the source give for COC(=O)N1CCN(Cc2cccc(NC(=O)Nc3ccc(C)nc3)c2F)CC1 [omecamtiv mecarbil] here?
Its value is “less than 10%”.

What about the CL renal ([1]; oral, read-out: Mean renal clearance (converted)) of the same molecule?
The CL renal was 16.7 mL/min.

And the clearance ([1]; oral, read-out: Total systemic clearance (converted))?
Its clearance is 195 mL/min.

What about the half-life ([1]; patients with heart failure, read-out: Median half-life) of the same molecule?
The half-life was 23 to 32 h.

And the Vd ([1]; read-out: Volume of distribution at steady state)?
Its Vd is 4.8 to 6.6 L/kg.

And the “Substrate of P-gp” value (P-gp)?
The value was “substrate”.

What about the concentration at 6 weeks ([2]; patients not taking digoxin) of the same molecule?
Its concentration at 6 weeks is 280 ng/mL.

What about the concentration at 6 weeks ([2]; patients taking digoxin) of the same molecule?
The concentration at 6 weeks was 286 ng/mL.

And the “Troponin I increase” value ([3]; patients in AFF at baseline not taking digoxin)?
The value was “+45%”.

What about the “Troponin I increase” value ([3]; patients in AFF at baseline taking digoxin) of the same molecule?
The value was “+29%”.

And the “Treatment effect on primary outcome by AFF at baseline” value ([3]; result in words)?
The value was “greater benefit observed in patients not in AFF”.

What about the “Treatment effect on primary outcome by AFF at baseline” value ([3]; result in words, listed as OM) of the same molecule?
The value was “patients without AFF deriving greater benefit”.

What about the “Serious adverse events, events” value ([3]; per 2974 patients, over the course of the study (FIG. 21E)) of the same molecule?
The value was 55 events.

And the “Treatment effect modification by AFF according to digoxin use” value ([3]; result in words)?
Its value is “significantly more pronounced in digoxin users than in non-users”.

What about the “Primary outcome, hazard ratio for the treatment effect” value (shortened to “Primary outcome, hazard ratio”) ([4]; baseline SBP 101-110 mmHg (n=1734)) of the same molecule?
Its value is 0.88.

What about the “Primary outcome, hazard ratio” value ([4]; baseline SBP 111-120 mmHg (n=1824)) of the same molecule?
Its value is 1.03.

And the “Primary outcome, hazard ratio” value ([4]; baseline SBP 121-130 mmHg (n=1627))?
The value was 0.87.

And the “Primary outcome, hazard ratio” value ([4]; baseline SBP <100 mmHg (n=1473))?
Its value is 0.81.

What about the “Primary outcome, hazard ratio” value ([4]; baseline SBP >130 mmHg (n=1574)) of the same molecule?
The value was 1.07.

And the “Substrate of BCRP” value (BCRP [5])?
Its value is “substrate”.

And the “Inhibition of BCRP” value (BCRP [6])?
Its value is “inhibitor”.
